Literature values in patent US20220202844A1, “DRUG DELIVERY COMPOSITION AND A METHOD OF ADMINISTERING THE DRUG” (priority 2020, published 2022).
Converted amounts (≈) assume the structure as drawn.

Conditions: background statement

aqueous solubility: 50 mg/mL (≈ 75.4 mM)
SMILES: NC(=O)c1ccc[n+]([C@@H]2O[C@H](COP(=O)([O-])OP(=O)(O)OC[C@H]3O[C@@H](n4cnc5c(N)ncnc54)[C@H](O)[C@@H]3O)[C@@H](O)[C@H]2O)c1 [NAD+, nicotinamide adenine dinucleotide]
